In patent US7074789B2, “Kinase inhibitors” (Amgen Inc., priority 1999, dated 2006):

Legend:
Type in all cases: biochemical
Zap-70 = target: T1, Zap-70 (Homo sapiens, UniProt P43403); experiment: Kinase inhibition assay (33P transfer), Zap-70; conditions: read-out: Zap-1
T1 construct: Kinases are expressed as either kinase domains or full length constructs; made in house
T1 sequence (P43403 1-619): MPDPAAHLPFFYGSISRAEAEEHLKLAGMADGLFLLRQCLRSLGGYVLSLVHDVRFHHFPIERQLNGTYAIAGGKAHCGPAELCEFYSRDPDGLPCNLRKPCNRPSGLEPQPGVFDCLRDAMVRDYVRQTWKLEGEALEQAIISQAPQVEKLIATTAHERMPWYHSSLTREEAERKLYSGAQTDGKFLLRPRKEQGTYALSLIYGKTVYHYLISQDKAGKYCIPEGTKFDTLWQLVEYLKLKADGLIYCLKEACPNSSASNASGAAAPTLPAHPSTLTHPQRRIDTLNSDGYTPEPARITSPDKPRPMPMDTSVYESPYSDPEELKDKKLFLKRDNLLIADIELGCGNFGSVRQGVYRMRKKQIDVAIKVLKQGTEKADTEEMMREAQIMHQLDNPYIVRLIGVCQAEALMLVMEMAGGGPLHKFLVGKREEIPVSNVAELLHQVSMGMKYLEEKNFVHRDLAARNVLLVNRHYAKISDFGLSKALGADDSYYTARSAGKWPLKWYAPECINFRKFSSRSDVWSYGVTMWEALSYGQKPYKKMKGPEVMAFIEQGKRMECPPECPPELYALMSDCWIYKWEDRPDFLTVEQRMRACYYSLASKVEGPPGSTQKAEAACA
Method in brief: (§1)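 Recombinant kinase-domain or full-length fusion proteins (GST or His tag) served as enzyme. Substrate poly(Glu,Tyr) 4:1 or poly(Arg,Ser) 3:1 was bound to the plate; transferred 33P was read by liquid scintillation following acid washing.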

c-Met = target: T2, c-Met (Homo sapiens, UniProt P08581); experiment: Kinase inhibition assay (33P transfer), c-Met; conditions: Table 2, kinase inhibition class; read-out: Met-1
T2 construct: Kinases are expressed as either kinase domains or full length constructs; made in house
Method in brief: (§2)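 Read-out: scintillation counts of 33P moved from ATP onto synthetic peptide polymer coated on the well surface, after washing with 0.5% phosphoric acid. Enzymes were tagged (GST or polyHistidine) and came from bacterial or insect-cell expression. IC50 marks 50% loss of incorporated label.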

EGFR = target: T3, EGFR (Homo sapiens, UniProt P00533); experiment: Kinase inhibition assay (33P transfer), EGFR; conditions: Table 2, kinase inhibition class; read-out: EGFR-1
T3 construct: Kinases are expressed as either kinase domains or full length constructs; made in house
Method in brief: as §2

PDGFRB = target: T4, PDGFRB (Homo sapiens, UniProt P09619); experiment: Kinase inhibition assay (33P transfer), PDGFRB; conditions: read-out: PDGFRB-1
T4 construct: Kinases are expressed as either kinase domains or full length constructs; made in house

Itk = target: T5, Itk (Homo sapiens, UniProt Q08881); experiment: Kinase inhibition assay (33P transfer), Itk; conditions: read-out: Itk-1
T5 construct: Kinases are expressed as either kinase domains or full length constructs; made in house
T5 sequence (Q08881 1-620): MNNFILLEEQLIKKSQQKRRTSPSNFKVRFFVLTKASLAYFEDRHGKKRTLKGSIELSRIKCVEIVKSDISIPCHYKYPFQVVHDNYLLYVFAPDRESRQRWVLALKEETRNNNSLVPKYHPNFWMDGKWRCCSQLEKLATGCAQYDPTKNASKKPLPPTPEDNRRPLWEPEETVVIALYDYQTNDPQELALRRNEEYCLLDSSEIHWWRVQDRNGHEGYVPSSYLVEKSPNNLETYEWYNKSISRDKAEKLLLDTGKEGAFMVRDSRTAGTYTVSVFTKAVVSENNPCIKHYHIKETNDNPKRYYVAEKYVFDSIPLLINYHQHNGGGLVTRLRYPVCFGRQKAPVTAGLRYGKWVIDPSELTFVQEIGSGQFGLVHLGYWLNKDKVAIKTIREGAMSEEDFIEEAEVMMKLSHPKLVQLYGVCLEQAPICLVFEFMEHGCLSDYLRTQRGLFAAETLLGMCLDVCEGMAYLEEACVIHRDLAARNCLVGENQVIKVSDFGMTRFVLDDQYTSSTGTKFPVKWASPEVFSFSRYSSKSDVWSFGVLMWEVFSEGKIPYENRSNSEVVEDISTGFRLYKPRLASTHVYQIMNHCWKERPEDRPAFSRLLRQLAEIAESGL
Method in brief: as §2

Lck = target: T6, Lck (Homo sapiens, UniProt P06239); experiment: Kinase inhibition assay (33P transfer), Lck; conditions: read-out: Lck-1
T6 construct: Kinases are expressed as either kinase domains or full length constructs; made in house
Method in brief: as §1

ErbB2 = target: T7, ErbB2 (Homo sapiens, UniProt P04626); experiment: Kinase inhibition assay (33P transfer), ErbB2; conditions: read-out: ErbB2-2
T7 construct: Kinases are expressed as either kinase domains or full length constructs; made in house
From the text: The inhibitor compounds described herein are screened in the following manner. Kinases suitable for use in the following protocol to determine kinase activity of the compounds described herein include, -but are not limited to: Lck, Lyn, Src, Fyn, Syk, Zap-70, Itk, Tec, Btk, EGFR, ErbB2, Kdr, Flt-1, Flt-3, Tek, c-Met, InsR, and AKT.
Kinases are expressed as either kinase domains or full length constructs fused to glutathione S-transferase (GST) or polyHistidine tagged fusion proteins in either E. colior Baculovirus-High Five expression systems. They are purified to near homogeneity by affinity chromatography essentially as previously described (Lehr et al., 1996; Gish et al., 1995). In some instances, kinases are co-expressed or mixed with purified or partially purified regulatory polypeptides prior to measurement of activity.
Kinase activity and inhibition are measured essentially by established protocols (Braunwalder et al., 1996). Briefly, The transfer of ^33PO4 from ATP to the synthetic substrates poly(Glu, Tyr) 4:1 or poly(Arg, Ser) 3:1 attached to the bioactive surface of microtiter plates serves as the basis to evaluate enzyme activity. After an incubation period, the amount of phosphate transferred is measured by first washing the plate with 0.5% phosphoric acid, adding liquid scintillant, and then counting in a liquid scintillation detector. The IC50 is determined by the concentration of compound that causes a 50% reduction in the amount of […] incorporated onto the substrate bound to the plate.

AKT = target: T8, AKT (Homo sapiens, UniProt Q9Y243); experiment: Kinase inhibition assay (33P transfer), AKT; conditions: Table 2, kinase inhibition class; read-out: AKT3-1
T8 construct: Kinases are expressed as either kinase domains or full length constructs; made in house
Method in brief: as §1

IGFR-1 = target: T9, IGFR-1 (Homo sapiens, UniProt P08069); experiment: Kinase inhibition assay, IGFR-1 (Table 2); conditions: Table 2, kinase inhibition class
T9 construct: Kinases are expressed as either kinase domains or full length constructs; made in house

Kdr = target: T10, Kdr (Homo sapiens, UniProt P35968); experiment: Kinase inhibition assay (33P transfer), Kdr; conditions: read-out: KDR-1
T10 construct: Kinases are expressed as either kinase domains or full length constructs; made in house
Method in brief: as §1

T2 sequence (P08581 25-1390): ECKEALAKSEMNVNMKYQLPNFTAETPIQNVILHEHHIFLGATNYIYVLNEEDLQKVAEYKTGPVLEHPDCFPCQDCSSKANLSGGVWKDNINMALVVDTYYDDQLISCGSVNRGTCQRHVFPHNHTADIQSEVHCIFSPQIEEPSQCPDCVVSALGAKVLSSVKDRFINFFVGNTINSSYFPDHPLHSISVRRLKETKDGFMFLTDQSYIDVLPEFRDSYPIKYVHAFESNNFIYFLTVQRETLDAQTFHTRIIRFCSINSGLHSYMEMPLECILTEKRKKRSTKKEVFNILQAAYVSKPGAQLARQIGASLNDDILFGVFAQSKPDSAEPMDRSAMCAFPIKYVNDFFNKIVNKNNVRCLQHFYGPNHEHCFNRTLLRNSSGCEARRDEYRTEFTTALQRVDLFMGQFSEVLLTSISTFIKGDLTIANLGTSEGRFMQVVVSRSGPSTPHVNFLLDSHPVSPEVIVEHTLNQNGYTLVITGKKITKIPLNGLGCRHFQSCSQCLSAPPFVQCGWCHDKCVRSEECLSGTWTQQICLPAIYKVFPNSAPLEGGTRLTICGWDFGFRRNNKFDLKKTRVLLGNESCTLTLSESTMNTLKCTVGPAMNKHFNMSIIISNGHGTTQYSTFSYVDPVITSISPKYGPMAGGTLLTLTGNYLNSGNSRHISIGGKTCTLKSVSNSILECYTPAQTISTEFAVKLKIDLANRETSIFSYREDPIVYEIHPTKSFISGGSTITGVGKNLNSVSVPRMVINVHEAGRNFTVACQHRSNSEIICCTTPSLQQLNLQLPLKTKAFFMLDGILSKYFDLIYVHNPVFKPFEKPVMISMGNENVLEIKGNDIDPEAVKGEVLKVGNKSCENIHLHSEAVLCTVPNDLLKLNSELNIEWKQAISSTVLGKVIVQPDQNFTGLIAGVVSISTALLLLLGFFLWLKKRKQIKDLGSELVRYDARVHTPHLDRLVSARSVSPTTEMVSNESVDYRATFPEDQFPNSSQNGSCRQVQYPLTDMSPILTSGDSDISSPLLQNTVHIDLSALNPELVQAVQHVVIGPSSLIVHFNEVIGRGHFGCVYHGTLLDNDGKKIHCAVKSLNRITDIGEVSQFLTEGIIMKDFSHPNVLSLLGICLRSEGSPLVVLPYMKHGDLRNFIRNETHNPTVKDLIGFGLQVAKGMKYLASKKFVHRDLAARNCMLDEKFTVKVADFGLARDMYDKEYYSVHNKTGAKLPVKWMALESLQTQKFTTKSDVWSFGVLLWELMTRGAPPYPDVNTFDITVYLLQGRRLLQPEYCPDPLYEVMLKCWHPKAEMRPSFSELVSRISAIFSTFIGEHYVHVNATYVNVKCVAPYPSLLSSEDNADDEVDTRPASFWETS
T7 sequence (P04626 23-1255, species assumed): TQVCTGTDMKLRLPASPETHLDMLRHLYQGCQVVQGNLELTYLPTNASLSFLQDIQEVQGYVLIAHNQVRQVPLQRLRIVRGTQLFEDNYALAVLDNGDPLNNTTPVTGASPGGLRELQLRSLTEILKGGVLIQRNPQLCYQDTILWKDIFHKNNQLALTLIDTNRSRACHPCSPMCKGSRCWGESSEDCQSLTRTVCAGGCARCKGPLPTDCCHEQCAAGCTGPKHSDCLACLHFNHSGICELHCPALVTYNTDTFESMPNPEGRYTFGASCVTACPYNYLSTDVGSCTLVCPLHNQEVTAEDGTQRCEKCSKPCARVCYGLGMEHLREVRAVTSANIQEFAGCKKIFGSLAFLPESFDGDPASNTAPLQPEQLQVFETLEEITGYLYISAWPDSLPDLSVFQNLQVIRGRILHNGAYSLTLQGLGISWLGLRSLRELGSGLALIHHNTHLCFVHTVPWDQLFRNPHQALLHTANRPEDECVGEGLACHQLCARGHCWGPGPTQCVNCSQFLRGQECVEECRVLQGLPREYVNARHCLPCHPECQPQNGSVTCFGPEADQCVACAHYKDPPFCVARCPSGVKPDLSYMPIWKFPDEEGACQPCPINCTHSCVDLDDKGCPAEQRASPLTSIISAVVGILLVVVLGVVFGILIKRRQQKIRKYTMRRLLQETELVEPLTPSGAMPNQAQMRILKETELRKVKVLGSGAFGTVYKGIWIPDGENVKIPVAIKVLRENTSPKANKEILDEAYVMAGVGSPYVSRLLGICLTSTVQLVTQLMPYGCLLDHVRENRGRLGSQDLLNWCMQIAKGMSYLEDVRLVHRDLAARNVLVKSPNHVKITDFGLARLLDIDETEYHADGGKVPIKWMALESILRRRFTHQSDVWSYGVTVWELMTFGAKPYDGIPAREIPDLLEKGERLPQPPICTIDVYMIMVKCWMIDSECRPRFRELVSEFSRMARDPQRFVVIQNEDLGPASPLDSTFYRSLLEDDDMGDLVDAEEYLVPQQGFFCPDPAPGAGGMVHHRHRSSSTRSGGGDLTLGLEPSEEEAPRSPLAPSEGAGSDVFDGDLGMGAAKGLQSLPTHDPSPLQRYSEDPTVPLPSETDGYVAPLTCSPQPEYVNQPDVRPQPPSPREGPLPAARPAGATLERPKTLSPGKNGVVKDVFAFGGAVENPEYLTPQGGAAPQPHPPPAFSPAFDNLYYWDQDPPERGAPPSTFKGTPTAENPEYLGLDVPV
T6 sequence (P06239 whole entry, species assumed, the tested form may be a part): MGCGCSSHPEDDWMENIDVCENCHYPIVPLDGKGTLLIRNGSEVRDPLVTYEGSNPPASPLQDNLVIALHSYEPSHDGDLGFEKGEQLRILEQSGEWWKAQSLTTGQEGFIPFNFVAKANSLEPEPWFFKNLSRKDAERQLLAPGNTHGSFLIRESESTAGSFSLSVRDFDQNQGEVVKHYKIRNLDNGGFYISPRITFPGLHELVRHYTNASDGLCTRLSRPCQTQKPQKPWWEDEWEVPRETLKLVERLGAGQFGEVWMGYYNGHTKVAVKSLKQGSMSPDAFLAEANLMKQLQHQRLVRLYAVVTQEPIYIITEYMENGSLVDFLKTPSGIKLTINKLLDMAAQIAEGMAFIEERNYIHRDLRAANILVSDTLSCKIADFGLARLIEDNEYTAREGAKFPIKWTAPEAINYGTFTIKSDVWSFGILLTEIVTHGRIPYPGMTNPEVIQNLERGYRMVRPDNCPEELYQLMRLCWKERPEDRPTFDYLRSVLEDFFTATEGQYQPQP
T9 sequence (P08069 31-1367): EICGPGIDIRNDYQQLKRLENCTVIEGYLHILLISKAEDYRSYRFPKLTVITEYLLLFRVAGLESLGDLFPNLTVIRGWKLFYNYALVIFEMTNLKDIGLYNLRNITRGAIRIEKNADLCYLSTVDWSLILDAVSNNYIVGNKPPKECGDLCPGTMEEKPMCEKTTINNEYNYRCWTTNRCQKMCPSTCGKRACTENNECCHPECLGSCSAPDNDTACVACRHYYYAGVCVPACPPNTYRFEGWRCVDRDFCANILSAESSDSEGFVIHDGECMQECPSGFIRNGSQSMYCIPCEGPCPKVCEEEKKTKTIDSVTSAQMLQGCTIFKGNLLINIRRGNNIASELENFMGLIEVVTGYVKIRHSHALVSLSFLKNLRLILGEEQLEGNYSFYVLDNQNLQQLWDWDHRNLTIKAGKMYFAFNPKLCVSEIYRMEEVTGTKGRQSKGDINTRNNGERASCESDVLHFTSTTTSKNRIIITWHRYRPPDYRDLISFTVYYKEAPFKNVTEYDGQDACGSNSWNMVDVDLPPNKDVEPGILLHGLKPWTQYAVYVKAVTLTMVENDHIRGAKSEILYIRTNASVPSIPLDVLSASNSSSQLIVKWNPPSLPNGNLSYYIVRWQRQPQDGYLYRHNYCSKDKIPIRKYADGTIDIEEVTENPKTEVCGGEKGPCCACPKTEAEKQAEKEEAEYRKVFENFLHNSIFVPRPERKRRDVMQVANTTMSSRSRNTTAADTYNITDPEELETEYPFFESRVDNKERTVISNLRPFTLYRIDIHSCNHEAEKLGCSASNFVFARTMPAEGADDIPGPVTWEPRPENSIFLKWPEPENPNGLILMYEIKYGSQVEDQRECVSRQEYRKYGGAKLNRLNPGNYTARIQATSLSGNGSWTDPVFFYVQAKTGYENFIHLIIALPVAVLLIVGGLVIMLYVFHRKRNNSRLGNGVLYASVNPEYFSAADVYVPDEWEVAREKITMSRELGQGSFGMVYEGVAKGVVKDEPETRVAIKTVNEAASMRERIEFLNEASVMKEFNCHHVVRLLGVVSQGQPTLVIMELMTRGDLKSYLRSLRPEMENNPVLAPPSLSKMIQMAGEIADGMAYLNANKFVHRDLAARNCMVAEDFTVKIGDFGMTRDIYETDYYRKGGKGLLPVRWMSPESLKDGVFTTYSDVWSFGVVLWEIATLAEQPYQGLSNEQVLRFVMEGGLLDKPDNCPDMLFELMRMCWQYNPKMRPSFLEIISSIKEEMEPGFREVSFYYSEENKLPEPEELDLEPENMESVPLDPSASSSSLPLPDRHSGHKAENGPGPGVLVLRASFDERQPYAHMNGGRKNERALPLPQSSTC
T8 sequence (Q9Y243 whole entry, the tested form may be a part): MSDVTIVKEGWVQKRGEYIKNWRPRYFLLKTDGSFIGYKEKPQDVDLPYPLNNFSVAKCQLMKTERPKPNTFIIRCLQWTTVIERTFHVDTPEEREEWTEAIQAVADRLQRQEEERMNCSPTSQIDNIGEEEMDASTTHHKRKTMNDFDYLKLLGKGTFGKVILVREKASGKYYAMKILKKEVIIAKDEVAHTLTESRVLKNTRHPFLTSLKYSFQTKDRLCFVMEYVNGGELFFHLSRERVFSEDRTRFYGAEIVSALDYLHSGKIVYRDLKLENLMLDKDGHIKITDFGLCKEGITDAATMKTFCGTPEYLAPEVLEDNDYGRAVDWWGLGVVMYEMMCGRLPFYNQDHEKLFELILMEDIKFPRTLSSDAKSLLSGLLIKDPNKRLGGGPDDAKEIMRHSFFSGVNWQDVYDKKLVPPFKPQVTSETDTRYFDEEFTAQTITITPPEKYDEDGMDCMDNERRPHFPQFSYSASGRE

SMILES | IC50 (Zap-70) [µM] | IC50 (c-Met) [µM] | IC50 (EGFR) [µM] | IC50 (PDGFRB) [µM] | IC50 (Itk) [µM] | IC50 (Lck) [µM] | IC50 (ErbB2) [µM] | IC50 (AKT) [µM] | IC50 (IGFR-1) [µM] | IC50 (Kdr) [µM]
COc1ccc(Nc2ncnc(NCc3c(C)cccc3Cl)n2)cc1OC [Compound 791] | > 11.7 | > 11.7 | > 11.7 | > 11.7 | > 11.7 | > 11.7 | 6.22 to 9.07 | > 11.7 | > 11.7 | > 11.7
COC(=O)c1sccc1Nc1ncnc(N2CCCc3cc(C)ccc32)n1 [Compound 767] | > 11.8 | > 11.8 | > 11.8 | > 11.8 | > 11.8 | > 11.8 | > 11.8 | > 11.8 | > 11.8 | > 11.8
CN(c1cccc(Cl)c1)c1ncnc(Nc2ccc(CC(=O)O)cc2)n1 [Compound 705] | > 12.2 | > 12.2 | < 1.08 | > 12.2 | > 12.2 | > 12.2 | 1.08 to 6.49 | > 12.2 | > 12.2 | 9.46 to 12.2
COc1cc(Nc2ncnc(-c3cccnc3NCc3ccc(F)cc3)n2)cc(OC)c1OCCN1CCOCC1 [Compound 564] | > 8.01 | > 8.01 | 4.27 to 6.23 | < 0.712 | > 8.01 | < 0.712 | > 8.01 | > 8.01 | > 8.01 | < 0.712
COc1cc(Nc2ncnc(Nc3cc(-c4ccc(Cl)c(Cl)c4)n[nH]3)n2)cc(OC)c1OC [Compound 589] | > 9.21 | 7.17 to 9.21 | 4.91 to 7.17 | > 9.21 | 4.91 to 7.17 | 0.819 to 4.91 | 4.91 to 7.17 | > 9.21 | < 0.819 | 0.819 to 4.91
Cc1ccc2c(c1)CCCN2c1ncnc(NCc2ccccn2)n1 [Compound 769] | > 13.5 | > 13.5 | > 13.5 | > 13.5 | > 13.5 | > 13.5 | > 13.5 | > 13.5 | > 13.5 | > 13.5
O=C(O)Cc1cccc(Nc2ncnc(Nc3cccc(Br)c3)n2)c1 [Compound 541] | > 11.2 | 8.74 to 11.2 | < 0.999 | 0.999 to 6 | 8.74 to 11.2 | > 11.2 | < 0.999 | > 11.2 | 0.999 to 6 | 0.999 to 6
COc1cc(Nc2ncnc(Nc3cc(-c4ccc(C(=O)NCCc5ccccc5)cc4)n[nH]3)n2)cc(OC)c1OC [Compound 1006] | > 7.94 | < 0.706 | > 7.94 | > 7.94 | 4.24 to 6.18 | 0.706 to 4.24 | 4.24 to 6.18 | > 7.94 | < 0.706 | > 7.94
COc1cc(Nc2ncnc(Nc3cccc(CC(=O)O)c3)n2)cc(OC)c1OC [Compound 624] | > 10.9 | > 10.9 | < 0.972 | 0.972 to 5.83 | > 10.9 | 0.972 to 5.83 | < 0.972 | > 10.9 | > 10.9 | 5.83 to 8.51
COC(=O)Cc1cccc(Nc2ncnc(-n3c(N)nc4ccccc43)n2)c1 [Compound 546] | 9.32 to 12 | 6.39 to 9.32 | 6.39 to 9.32 | 1.07 to 6.39 | 1.07 to 6.39 | 1.07 to 6.39 | 6.39 to 9.32 | 9.32 to 12 | < 1.07 | < 1.07
CN(c1cccc(Cl)c1)c1ncnc(NCC2CCCO2)n1 (centres unmarked) [Compound 739] | > 14.1 | > 14.1 | 1.25 to 7.5 | > 14.1 | > 14.1 | > 14.1 | > 14.1 | > 14.1 | > 14.1 | > 14.1
COc1cc(Nc2ncnc(Nc3cc(F)cc(C(F)(F)F)c3)n2)cc(OC)c1OC [Compound 632] | > 10.2 | > 10.2 | < 0.91 | 0.91 to 5.46 | > 10.2 | 0.91 to 5.46 | 0.91 to 5.46 | > 10.2 | 0.91 to 5.46 | 7.97 to 10.2
CCN(CC)CCNc1ncnc(N(C)c2cccc(Cl)c2)n1 [Compound 745] | > 13.4 | > 13.4 | 1.19 to 7.17 | > 13.4 | > 13.4 | > 13.4 | > 13.4 | > 13.4 | > 13.4 | > 13.4
CC(C)(C)c1cc(Nc2ncnc(Nc3cccc(Cl)c3)n2)[nH]n1 [Compound 1007] | > 13.1 | 1.16 to 6.98 | < 1.16 | > 13.1 | 1.16 to 6.98 | 1.16 to 6.98 | 1.16 to 6.98 | > 13.1 | < 1.16 | 1.16 to 6.98
Cc1cccc(Nc2ncnc(Nc3cc(-c4ccccc4)n[nH]3)n2)c1 [Compound 1012] | 10.2 to 13.1 | 1.16 to 6.99 | < 1.16 | 1.16 to 6.99 | 1.16 to 6.99 | 1.16 to 6.99 | 6.99 to 10.2 | 1.16 to 6.99 | < 1.16 | 1.16 to 6.99
COc1ccc(Nc2ncnc(NCCC#N)n2)cc1OC [Compound 787] | > 15 | > 15 | > 15 | > 15 | > 15 | > 15 | > 15 | > 15 | > 15 | > 15
COc1cc(Nc2ncnc(Nc3ccc(OCC(=O)Nc4ccccc4)cc3)n2)cc(OC)c1OC [Compound 623] | > 8.95 | 6.96 to 8.95 | 0.796 to 4.78 | < 0.796 | 0.796 to 4.78 | < 0.796 | 0.796 to 4.78 | > 8.95 | 0.796 to 4.78 | 0.796 to 4.78
